Test results reported in US20170150719A1, “FUNGICIDAL PYRAZOLES AND THEIR MIXTURES” (E I DU PONT DE NEMOURS AND COMPANY, priority 2010, published 2017).
Marks after values point to notes of the source that are not given here.

How the values were obtained:
Septoria tritici = assay: Test F: wheat leaf blotch, preventive spray on wheat seedlings, visual disease rating; type: in vivo; design: Test F rating (disease control), value marked *: concentration or dose not given beside the values; conditions: for Test F rating (disease control) / pest or weed control at 200 µg/mL: 0 = no disease control relative to the controls; for pest or weed control at 200 µg/mL: Zymoseptoria tritici
Description: (§1) A hyphen (-) indicates no test results.

[1] = system: Puccinia recondita f. sp. tritici; assay: Test G: wheat leaf rust, spray after inoculation (curative) on wheat seedlings, visual disease rating; type: in vivo; conditions: for Test G rating (disease control) / pest or weed control at 200 µg/mL: 0 = no disease control
Description: as §1

[2] = system: Puccinia recondita f. sp. tritici; assay: Test H: wheat leaf rust, preventive spray on wheat seedlings, visual disease rating; conditions: for Test H rating (disease control): sprayed the day before inoculation; for Test H rating (disease control) / pest or weed control at 200 µg/mL: 0 = no disease control; for pest or weed control at 200 µg/mL: read-out: Test H rating (disease control), wheat leaf rust, sprayed the day before inoculation
Botrytis cinerea = assay: Test A: tomato Botrytis, preventive spray on tomato seedlings, visual disease rating; conditions: for Test A rating (disease control) / pest or weed control at 200 µg/mL: 0 = no disease control relative to the controls; for pest or weed control at 200 µg/mL: Botrytis cinerea, in Solanum lycopersicum, read-out: Test A rating (disease control), tomato Botrytis
Alternaria solani = assay: Test B: tomato early blight, preventive spray on tomato seedlings, visual disease rating; conditions: for Test B rating (disease control): 0 = no disease control relative to the controls; for pest or weed control at 200 µg/mL: Alternaria solani, in Solanum lycopersicum, read-out: Test B rating (disease control)
[3] = system: Blumeria graminis f. sp. tritici; assay: Test I: wheat powdery mildew, preventive spray on wheat seedlings, visual disease rating; conditions: for Test I rating (disease control) / pest or weed control at 200 µg/mL: 0 = no disease control relative to the controls; for pest or weed control at 200 µg/mL: Blumeria graminis, in Triticum aestivum, read-out: Test I rating (disease control), wheat powdery mildew
Septoria nodorum = assay: Test E: Septoria glume blotch, preventive spray on wheat seedlings, visual disease rating; conditions: for Test E rating (disease control) / pest or weed control at 200 µg/mL: 0 = no disease control relative to the controls; for pest or weed control at 200 µg/mL: Parastagonospora nodorum, in Triticum aestivum, read-out: Test E rating (disease control), Septoria glume blotch
[4] = sprayed after inoculation, 100 = 100% disease control
[5] = wheat leaf rust, 100 = 100% disease control
[6] = tomato Botrytis, 100 = 100% disease control
[7] = tomato early blight, 100 = 100% disease control
[8] = wheat powdery mildew, 100 = 100% disease control
[9] = Septoria glume blotch, 100 = 100% disease control

| Structure (SMILES) | Test F rating (disease control) (Septoria tritici; 100 = 100% disease control) | Test G rating (disease control) [1, 4] | Test H rating (disease control) [2, 5] | Test A rating (disease control) (Botrytis cinerea; [6]) | Test B rating (disease control) (Alternaria solani; [7]) | Test I rating (disease control) [3, 8] | Test E rating (disease control) (Septoria nodorum; [9]) | further results |
| --- | --- | --- | --- | --- | --- | --- | --- | --- |
| Cc1nn(C)c(Nc2ccc(F)cc2Cl)c1-c1ccc(F)cc1Br [compound 96] | 100% | 94% | 100% | 100% | 95% | 100% | 0% | – |
| COc1ccc(Nc2c(-c3c(F)cccc3F)c(C)nn2C)c(Cl)c1 [compound 60] | 100% | 18% | 97% | 99% | 97% | 99% | 20% | – |
| Cc1nn(C)c(Nc2c(F)cc(Cl)cc2F)c1-c1ccc(F)cc1Br [Compound 129, 4-(2-bromo-4-fluorophenyl)-N-(4-chloro-2,6-difluorophenyl)-1,3-dimethyl-1H-pyrazol-5-amine] | – | – | – | – | – | – | – | pest or weed control at 200 µg/mL (Septoria tritici; 100 = 100% disease control): 100%; pest or weed control at 200 µg/mL [1, 4]: 79%; pest or weed control at 200 µg/mL ([2]; 100 = 100% disease control): 100%; pest or weed control at 200 µg/mL (Botrytis cinerea; 100 = 100% disease control): 100%; pest or weed control at 200 µg/mL (Alternaria solani): 97%; pest or weed control at 200 µg/mL ([3]; 100 = 100% disease control): 100%; pest or weed control at 200 µg/mL (Septoria nodorum; 100 = 100% disease control): 95% |
| Cc1nn(C)c(Nc2ccc(Br)cc2Cl)c1-c1ccc(F)cc1Cl [compound 172] | 100% | 0% | 100% | 100% | 73% | 100% | 60% | – |
| Cc1nn(C)c(Nc2ccc(Cl)cc2Cl)c1-c1c(Cl)cccc1Cl [compound 105] | 100% | 0% | 96% | 99% | 0% | 99% | 0% | – |
| Cc1nn(C)c(C(O)c2ccc(F)cc2F)c1-c1ccc(F)cc1Cl (stereo not drawn) [Compound 122, 4-(2-chloro-4-fluorophenyl)-α-(2,4-difluorophenyl)-1,3-dimethyl-1H-pyrazole-5-methanol] | – | – | – | – | – | – | – | pest or weed control at 200 µg/mL (Septoria tritici; 100 = 100% disease control): 100%; pest or weed control at 200 µg/mL [1, 4]: 96%; pest or weed control at 200 µg/mL ([2]; 100 = 100% disease control): 100%; pest or weed control at 200 µg/mL (Botrytis cinerea; 100 = 100% disease control): 100%; pest or weed control at 200 µg/mL (Alternaria solani): 99%; pest or weed control at 200 µg/mL ([3]; 100 = 100% disease control): 99%; pest or weed control at 200 µg/mL (Septoria nodorum; 100 = 100% disease control): 92% |
| COc1cc(F)c(-c2c(C)nn(C)c2Oc2c(F)cc(Br)cc2F)c(F)c1 [compound 24] | 100% | 0% | 98% | 99% | 95% | 100% | 84% | – |
| COc1cc(F)c(-c2c(C)nn(C)c2Oc2c(F)cccc2F)c(F)c1 [compound 22] | 100% | 98% | 100% | 100% | 100% | 99% | 78% | – |
| Cc1nn(C)c(Nc2ccc(F)cc2F)c1-c1ccccc1F [compound 52] | 100% | 0% | 60% | 94% | 44% | 98% | 0% | – |
| COc1cc(F)c(-c2c(C)nn(C)c2Nc2ccc(F)cc2Cl)c(F)c1 [Compound 23, N-(2-chloro-4-fluorophenyl)-4-(2,6-difluoro-4-methoxyphenyl)-1,3-dimethyl-1H-pyrazol-5-amine] | – | – | – | – | – | – | – | pest or weed control at 200 µg/mL (Septoria tritici; 100 = 100% disease control): 98%; pest or weed control at 200 µg/mL [1, 4]: 85%; pest or weed control at 200 µg/mL ([2]; 100 = 100% disease control): 99%; pest or weed control at 200 µg/mL (Botrytis cinerea; 100 = 100% disease control): 100%; pest or weed control at 200 µg/mL (Alternaria solani): 100%; pest or weed control at 200 µg/mL ([3]; 100 = 100% disease control): 100%; pest or weed control at 200 µg/mL (Septoria nodorum; 100 = 100% disease control): 95% |
| Cc1nn(C)c(Nc2c(F)cc(F)cc2F)c1-c1ccccc1F [compound 53] | 100% | 0% | 95% | 97% | 99% | 99% | 87% | – |
| Cc1nn(C)c(Nc2c(F)cc(F)cc2F)c1-c1ccc(F)cc1F [Compound 11, 4-(2,4-difluorophenyl)-1,3-dimethyl-N-(2,4,6-trifluorophenyl)-1H-pyrazol-5-amine] | – | – | – | – | – | – | – | pest or weed control at 200 µg/mL (Septoria tritici; 100 = 100% disease control): 94%; pest or weed control at 200 µg/mL [1, 4]: 0%; pest or weed control at 200 µg/mL ([2]; 100 = 100% disease control): 100%; pest or weed control at 200 µg/mL (Botrytis cinerea; 100 = 100% disease control): 100%; pest or weed control at 200 µg/mL (Alternaria solani): 99%; pest or weed control at 200 µg/mL ([3]; 100 = 100% disease control): 99%; pest or weed control at 200 µg/mL (Septoria nodorum; 100 = 100% disease control): 90% |
| Cc1nn(C)c(Nc2ccc(Br)cc2Cl)c1-c1ccc(F)cc1Br [compound 173] | 100% | 0% | 99% | 100% | 0% | 99% | 40% | – |
| Cc1nn(C)c(Nc2ccc(Br)cc2F)c1-c1ccc(F)cc1Cl [compound 135] | 100% | 9% | 99% | 100% | 58% | 100% | 0% | – |
| COc1ccc(Nc2c(-c3ccc(F)cc3Br)c(C)nn2C)c(Cl)c1 [compound 103] | 100% | 63% | 99% | 99% | 83% | 99% | 0% | – |
| Cc1nn(C)c(Oc2c(F)cc(C#N)cc2F)c1-c1ccc(F)cc1Cl [Compound 13, 4-[[4-(2-chloro-4-fluorophenyl)-1,3-dimethyl-1H-pyrazol-5-yl]oxy]-3,5-difluorobenzonitrile] | – | – | – | – | – | – | – | pest or weed control at 200 µg/mL (Septoria tritici; 100 = 100% disease control): 100%; pest or weed control at 200 µg/mL [1, 4]: 7%; pest or weed control at 200 µg/mL ([2]; 100 = 100% disease control): 100%; pest or weed control at 200 µg/mL (Botrytis cinerea; 100 = 100% disease control): 100%; pest or weed control at 200 µg/mL (Alternaria solani): 100%; pest or weed control at 200 µg/mL ([3]; 100 = 100% disease control): 100%; pest or weed control at 200 µg/mL (Septoria nodorum; 100 = 100% disease control): 100% |
| Cc1nn(C)c(Oc2ccc(Cl)cc2F)c1-c1ccc(F)cc1Cl [compound 158] | – | – | – | – | – | – | – | Test F rating (disease control), value marked * (Septoria tritici; rating marked with asterisk (*), other test condition, not explained in the text shown): 99* %; Test G rating (disease control), value marked * ([1]; sprayed after inoculation, rating marked with asterisk (*), not explained in the text shown): 37* %; Test H rating (disease control), value marked * ([2]; wheat leaf rust, preventive, rating marked with asterisk (*), not explained in the text shown): 98* %; Test A rating (disease control), value marked * (Botrytis cinerea; tomato Botrytis, rating marked with asterisk (*), other test condition, not explained in the text shown): 100* %; Test B rating (disease control), value marked * (Alternaria solani; tomato early blight, rating marked with asterisk (*), other test condition, not explained in the text shown): 80* %; Test I rating (disease control), value marked * ([3]; wheat powdery mildew, rating marked with asterisk (*), not explained in the text shown): 96* %; Test E rating (disease control), value marked * (Septoria nodorum; Septoria glume blotch, rating marked with asterisk (*), other test condition, not explained in the text shown): 0* % |
| COc1cc(F)c(-c2c(C)nn(C)c2C(O)c2ccc(F)cc2F)c(F)c1 (centres unmarked) [compound 62] | 100% | 0% | 99% | 100% | 100% | 99% | 99% | – |
| Cc1nn(C)c(Nc2c(F)cc(I)cc2F)c1-c1ccc(F)cc1Cl [compound 217] | – | – | – | – | – | – | – | Test F rating (% disease control) (Septoria tritici; preventive spray, 100 = 100% disease control, rating without asterisk): 100%; Test G rating (% disease control) ([1]; spray after inoculation, 100 = 100% disease control, rating without asterisk): 41%; Test H rating (% disease control) ([2]; wheat leaf rust, preventive spray, 100 = 100% disease control, rating without asterisk): 99%; Test A rating (% disease control) (Botrytis cinerea; tomato Botrytis, preventive spray, 100 = 100% disease control, 0 = no control relative to controls, rating without asterisk): 100%; Test B rating (% disease control) (Alternaria solani; tomato early blight, preventive spray, 100 = 100% disease control, rating without asterisk): 58%; Test I rating (% disease control) ([3]; wheat powdery mildew, preventive spray, 100 = 100% disease control, rating without asterisk): 99%; Test E rating (% disease control) (Septoria nodorum; Septoria glume blotch on wheat, preventive spray, 100 = 100% disease control, rating without asterisk): 86% |
| Cc1nn(C)c(Nc2c(Cl)cc(F)cc2Br)c1-c1ccc(F)cc1F [compound 120] | 100% | 19% | 100% | 100% | 80% | 100% | 94% | – |
